Legend:
thrombin = assay: Bioassay of HPLC urine fractions for inhibitory effect on thrombin activity; assay type: biochemical; conditions: urine HPLC fraction from rats, evaporated to dryness
Experimental: (§1) Rats were dosed intravenously with carbon 14 labeled [drawing 16] at 20 mg/kg in saline at 1 mL/kg. Bile and urine were collected periodically over 24 hours. Aliquots of these were analyzed for total radioactivity. Urine was also fractionated by HPLC using Zorbax XDB-C8 column eluted with 0.1% trifluoroacetic acid-water and acetonitrile gradient, and the fractions analyzed by mass spectrometry.
In another procedure, the urine was fractionated by HPLC. An aliquot of the fractions was assayed for total radioactivity, and the remaining volume was evaporated to dryness, under nitrogen, and bioassayed for inhibitory effect on the thrombin activity.

[1] = Metabolite identification in urine of male, bile duct-cannulated rats after intravenous dosing; assay type: in vivo, rat; conditions: carbon 14 labeled, intravenous 20 mg/kg in saline, urine collected over 24 hours
Experimental: Purification of 3-(2-Phenethyleneamino)-6-hydroxymethyl-1-(2-methyl-6-amino-3-methylenecarboxamidomethyl)pyrazin-2-one from male, bile duct-cannulated rats.
as §1

Q: Which “inhibitory effect on the thrombin activity” value (thrombin) does the source give for `Cc1nc(N)ccc1CNC(=O)Cn1c(CO)cnc(NCCc2ccccc2)c1=O` [6-HYDROXYMETHYL-3-(2-PHENETHYLAMINO )-1-(2-AMINO-6-METHYL-5-METHYLCARBOXAMIDOMETHYLPYRIDINYL)-PYRAZINONE] here?
A: significant inhibitory activity

Q: Which “metabolite in urine (site of hydroxylation)” value [1] does the source give for `Cc1nc(N)ccc1CNC(=O)Cn1c(C)cnc(NCCc2ccccc2)c1=O` here?
A: hydroxylation on the methylpyrazinone moiety

Reference: patent publication US6147078A, “Pyrazinone thrombin inhibitors” (Merck & Co., Inc., priority 1999, dated 2000)
